Assay results published in US11613686B2, “Associative copolymers with hydrophobic quaternized (meth)acrylamide and (meth)acrylic acid derivatives” (BASF SE, priority 2018, dated 2023).

Assay: Solubility tests of monomer 1 in the monomer solution with auxiliary surfactants (additives)
Assay type: physicochemical
Procedure: In order to solubilize monomer 1 the monomer was first dissolved in ethanol and then added to the monomer solution. This approach is used for AIBN, which has a low solubility in the monomer solution, too. […] Therefore, the use of auxiliary surfactants (additives) was tested.
These tests were done in first instance with 0.1 mol % of 1-4.

**Q.** What does the source list for C=C(C)C(=O)NCCC[N+](C)(C)CCCCCCCCCCCC [Monomer 1]?
**A.** Result (solubility of monomer 1) (Additive 1 Aromox C/12 2-20 eq, additive 2 Disponil A 1080 0-5 eq, same recipe): Not soluble***; Result (solubility of monomer 1) (Additive 1 Aromox MCD 2-20 eq, additive 2 Disponil A 1080 0-5 eq, same recipe): Not soluble***; Result (solubility of monomer 1) (Additive 1 C14TAB 2-20 eq, additive 2 Disponil A 1080 0-5 eq, same recipe): Not soluble***; Result (solubility of monomer 1) (Additive 1 Dehyquart E-CA 2-20 eq, additive 2 Disponil A 1080 0-5 eq, same recipe): Not soluble***; Result (solubility of monomer 1) (Additive 1 Deriphat 160 C 2-20 eq, additive 2 Disponil A 1080 0-5 eq, same recipe): Not soluble***; Result (solubility of monomer 1) (Additive 1 Disponil A 1080 2-20 eq, no additive 2, same recipe): Partly dissolved; Result (solubility of monomer 1) (Additive 1 Glucopon 225DK 2-20 eq, additive 2 Disponil A 1080 0-5 eq, same recipe): Not soluble***; Result (solubility of monomer 1) (Additive 1 Lutensol AO 11 2-20 eq, additive 2 Disponil A 1080 0-5 eq, same recipe): Not soluble***; Result (solubility of monomer 1) (Additive 1 Lutensol AT 18 2-20 eq, additive 2 Disponil A 1080 0-5 eq, same recipe): Not soluble***; Result (solubility of monomer 1) (Additive 1 Lutensol TO 129 2-20 eq, additive 2 Disponil A 1080 0-5 eq, same recipe): Not soluble***; Result (solubility of monomer 1) (Additive 1 Lutensol XP 100 2-20 eq, additive 2 Disponil A 1080 0-5 eq, same recipe): Not soluble***; Result (solubility of monomer 1) (Additive 1 SDS 2-20 eq, additive 2 Disponil A 1080 0-5 eq, same recipe): Not soluble***; Result (solubility of monomer 1) (Additive 1 Texapon NSO 2-20 eq, additive 2 Disponil A 1080 0-5 eq, same recipe): Not soluble***; Result (solubility of monomer 1) (no additive, recipe 27 mol % sodium acrylate, 72.9 mol % acrylamide, 0.1 mol % 1): Not soluble***
